In patent publication US20250129486A1, “A METHOD FOR MANUFACTURING PHARMACEUTICAL GRADE HYPOCHLOROUS ACID” (priority 2022, published 2025):

Tests used:
[1] = Storage stability of HOCl solution by container; format: physicochemical; details: any form of plastic container
Text: The present invention relates to a method of manufacture of pharmaceutical grade hypochlorous acid (HOCl) solution. The solution is free of toxic by-products and is manufactured by means of a process that is novel. Furthermore, the manufacturing process results in high concentration HOCl solution at a pre-determined pH level. The solution is stable when kept in UV-protected glass for two years. Due to the method and process of manufacture, the solution is of a pharmaceutical grade.
HOCl+UV light→OH+Cl^−+O3 [Reaction Formula 11] • It is therefore essential to store solutions containing HOCl in UV-protected inert containers. • ii) The container in which the solutions are kept should be made of glass. […] Glass containers avoid oxidation reactions between the container and HOCl. • iii) Stable HOCl production requires platinum grade reactants, including pure water without any organic and inorganic compounds or ions, as the oxidation of these compounds will deplete the HOCl concentration in the solution. • iv) Correcting the solution pH to between 4.0-5.80 immediately after manufacturing, through real-time buffering. Variation outside pH 4.0 to 5.80 will not only result in the dissociation of HOCl into Cl2 or OCl^− but will provide the environment for the decomposition of HOCl to form chlorate. It is therefore of utmost importance that this pH level

[2] = cited from earlier work

In the case of OCl [HOCl, hypochlorous acid], the “Decomposition of HOCl in container” value [1] is listed as “marked decomposition” and the pKa [2] is listed as 7.53.
